From ChEMBL document CHEMBL4387767, “Synthesis of carbazoloquinone derivatives and their antileukemic activity via modulating cellular reactive oxygen species” (Bioorg Med Chem Lett, 2019)
pIC50: −log10 of the molar value. Activity calls are given as the source filed them. The rule behind the calls is not given here.

Experiments:
[1] = tested on: HL-60; test: Cytotoxicity against human HL60 cells assessed as reduction in cell viability measured after 48 hrs by CCK8 assay; type: functional, cell-based; details: HL-60, 48 h
[2] = tested on: HL-60; test: Cytotoxicity against human HL60 cells assessed as cell viability at 10 uM measured after 48 hrs by CCK8 assay relative to control; type: functional; details: HL-60, 48 h, read-out: Activity
[3] = tested on: HL-60; test: Induction of reactive oxygen species generation in human HL60 cells assessed as increase in intracellular ROS level at 1 uM measured after 2 hrs by NBT dye-based assay relative to control; type: functional
[4] = tested on: HL-60; test: Induction of reactive oxygen species generation in human HL60 cells assessed as increase in extracellular ROS level at 1 uM measured after 2 hrs by NBT dye-based assay; type: functional, cell-based
[5] = tested on: HL-60; test: Induction of apoptosis in human HL60 cells assessed as chromatin crenation at 1 uM measured after 24 hrs by Hoechst 33342 staining based fluorescence microscopic method; type: functional, cell-based
[6] = tested on: HL-60; test: Induction of apoptosis in human HL60 cells assessed as chromatin fragmentation at 1 uM measured after 24 hrs by Hoechst 33342 staining based fluorescence microscopic method; type: functional, cell-based
[7] = tested on: HL-60; test: Induction of apoptosis in human HL60 cells assessed as chromatin condensation at 1 uM measured after 24 hrs by Hoechst 33342 staining based fluorescence microscopic method; type: functional, cell-based

| Compound | pIC50 ([1]; read-out: IC50) | viability at 10 µM [2] [%] | also measured |
| --- | --- | --- | --- |
| CC1=CC(=O)c2[nH]c3ccc(C(F)(F)F)cc3c2C1=O | 6.23 | < 20 | – |
| O=C1c2ccccc2C(=O)c2c1[nH]c1ccccc21 [BENZOCARBAZOLEDIONE] | < 4.30 | – | Activity [3]: Active |
| COc1cc2[nH]c3c(c2cc1OC)C(=O)C(C)=CC3=O | 6.26 | < 20 | – |
| O=C1c2ccccc2C(=O)c2c1[se]c1ccccc21 | < 4.30 | – | – |
| CC1=CC(=O)c2c([nH]c3ccccc23)C1=O | 6.54 | < 20 | – |
| O=C1c2ccccc2C(=O)c2c1sc1ccccc21 | < 4.30 | – | – |
| O=c1[nH]cc(F)c(=O)[nH]1 [FLUOROURACIL] | – | – | pIC50 [1]: 4.37 |
| CC1=CC(=O)c2[nH]c3ccc(Cl)cc3c2C1=O | 6.62 | < 20 | – |
| COc1ccc2[nH]c3c(c2c1)C(=O)C(C)=CC3=O | 5.51 | < 20 | – |
| COc1ccc2[nH]c3c(c2c1)C(=O)C=C(C)C3=O | 5.30 | < 20 | – |
| CC1=CC(=O)c2[nH]c3ccccc3c2C1=O [MURRAYAQUINONE A] | 6.14 | < 20 | Activity [4]: Active; Activity [5]: Active; Activity [6]: Active; fold change (FC) [3]: 2.3 - 2.4; Activity [7]: Active |
| COc1ccc2c3c([nH]c2c1)C(=O)C=C(C)C3=O | 5.92 | < 20 | – |
| O=C1c2ccccc2C(=O)c2c1oc1ccccc21 | 6.39 | – | Activity [4]: Active; Activity [5]: Active; Activity [6]: Active; fold change (FC) [3]: 2.3 - 2.4; Activity [7]: Active |
